Source: US20260294871A1, “PHARMACEUTICAL COMBINATIONS AND COMPOSITIONS THEREOF COMPRISING ANTIBACTERIAL AGENTS” (priority 2023, published 2026)
Converted amounts (≈) assume the structure as drawn. “And” between values parts separate entries of the source, which are not always exact repeats. Equal entries are not always repeated. Where two headings read alike, the source gives them in different places.

Columns and labels:
[1] = test system: all grouped isolates from India; test: MIC by broth microdilution against all grouped isolates from India; type: cell-based, resistant bacterial strains
Experimental: (§1) In a typical study MIC tests were performed by broth microdilution in line with CLSI susceptibility testing standards. Bacterial inocula were prepared at ca. 1×10^6 CFU/mL by diluting 100-fold a 0.5 McFarland suspension in CA-MHB with TES. Microtiter plate wells containing 50 μL of antibacterial solutions at 2×the final concentrations were diluted 2-fold with 50 μL of inoculum to give a final inoculum of ca. 5×10^5 CFU/mL and desired test concentrations of antibacterial agents. Test microtiter plates were incubated according to CLSI guidelines and read visually. MIC values corresponded to the first well with no visible growth.
There was a marked improvement in antibacterial activity, compared to MEM alone, observed for the triple combinations, for MEM/AVI [4 mg/L]/EDTA [10 mM] and MEM/AVI [4 mg/L]/EDTA [20 mM], the reduction in MIC90 was 0.06 μg/mL and ≤0.002 μg/mL, respectively.

[2] = test system: Enterobacterales isolates from India; test: MIC by broth microdilution against Enterobacterales; type: cell-based, Enterobacteriaceae; conditions: n=301
Experimental: as §1
The results of antibacterial activity of amikacin, Ceftazidime-avibactam, Ceftriaxone with sulbactam and EDTA, Meropenem and Meropenem with avibactam and EDTA against highly resistant strains of Enterobacteriaceae are given in Table 2.

[3] = test system: Escherichia coli; test: MIC by broth microdilution against E. coli; type: cell-based; conditions: Escherichia coli, highly resistant strains
Experimental: as §1
The results of antibacterial activity of amikacin, Ceftazidime-avibactam, Ceftriaxone with sulbactam and EDTA, Meropenem and Meropenem with avibactam and EDTA against highly resistant strains of Escherichia coli are given in Table 3. […] There was a marked improvement in antibacterial activity, compared to MEM alone, observed for the triple combination MEM/AVI [4 mg/L]/EDTA [10 mM] with a MIC90 at 0.004 μg/mL

[4] = test system: K. pneumoniae; test: MIC by broth microdilution against Klebsiella; type: cell-based, Klebsiella pneumoniae; conditions: highly resistant strains
Experimental: as §1
The results of antibacterial activity of amikacin, Ceftazidime-avibactam, Ceftriaxone with sulbactam and EDTA, Meropenem and Meropenem with avibactam and EDTA against highly resistant strains of Klebsiella (93. 3% Mem NS) are given in Table 4.

[5] = test system: Non-Enterobacteriaceae (non-fermenter isolates); test: MIC by broth microdilution against Non-Enterobacteriaceae; type: cell-based
Experimental: as §1

[6] = test system: P. aeruginosa; test: MIC by broth microdilution against P. aeruginosa; type: cell-based, Pseudomonas aeruginosa; conditions: Pseudomonas aeruginosa, highly resistant strains
Experimental: as §1
The results of antibacterial activity of amikacin, Ceftazidime-avibactam, Ceftriaxone with sulbactam and EDTA, Meropenem and Meropenem with avibactum and EDTA against highly resistant strains of P. aeruginosa are given in Table 5. As may be seen, the activity of the comparators was much lower although CRO/S4/E10 maximum MIC90 were much lower at ≤0.03 μg/mL.

[7] = test system: Acinetobacter baumannii; test: MIC by broth microdilution against Acinetobacter baumannii; type: cell-based
Experimental: as §1
The results of antibacterial activity of amikacin, Ceftazidime-avibactam, Ceftriaxone with sulbactam and EDTA, Meropenem and Meropenem with avibactum and EDTA against highly resistant strains of Acinetobacter baumannii are given in Table 7.

[8] = test system: Stenotrophomonas maltophilia; test: MIC by broth microdilution against Stenotrophomonas maltophilia; type: cell-based; conditions: Stenotrophomonas maltophilia, highly resistant strains
Experimental: as §1
The results of antibacterial activity of amikacin, Ceftazidime-avibactam, Ceftriaxone with sulbactam and EDTA, Meropenem and Meropenem with avibactum and EDTA against highly resistant strains of Stenotrophomonas maltophilia are given in Table 8.

[9] = test system: All isolates (n = 80); test: MIC profile of EDTA, all tested isolates; type: cell-based, Gram-negative clinical isolates
Experimental: (§2) Objective: The in-vitro activity of ethylenediaminetetraacetic acid (EDTA) was tested in cation-adjusted Mueller Hinton broth (CA-MHB) and MHB against a panel of Gram-negative clinical isolates from India.
(§3) Method: A total of 80 isolates including ATCC strains and non-duplicate clinically relevant Escherichia coli (n=20), Klebsiella pneumoniae (n=20), Pseudomonas aeruginosa (n=21) and Acinetobacter baumannii (n=19) characterized isolates were selected prior to susceptibility testing. The clinical isolates were collected from hospitalized patients from tertiary care medical centers in India. Isolates were tested for susceptibility to different test concentrations of EDTA (1.25, 2.5, 5, 10, 20, 40, 80 mM) in CA-MHB media and MHB by broth microdilution.

[10] = test system: Enterobacterales; test: MIC profile of EDTA, Enterobacterales; type: cell-based; conditions: n = 40
Experimental: as §2, §3

[11] = test system: E. coli; test: MIC profile of EDTA, E. coli; type: cell-based, Escherichia coli; conditions: for MIC50 / MIC90 / MIC: Escherichia coli, n = 20
Experimental: as §2, §3

[12] = test system: K. pneumoniae; test: MIC profile of EDTA, K. pneumoniae; type: cell-based, Klebsiella pneumoniae
Experimental: as §2, §3

[13] = test system: Non-fermenters; test: MIC profile of EDTA, non-fermenters; type: cell-based; conditions: n = 40; for MIC: CA-MHB
Experimental: as §2, §3

[14] = test system: A. baumannii; test: MIC profile of EDTA, A. baumannii; type: cell-based, Acinetobacter baumannii
Experimental: as §2, §3

[15] = test system: P. aeruginosa; test: MIC profile of EDTA, P. aeruginosa; type: cell-based, Pseudomonas aeruginosa; conditions: for MIC: CA-MHB
Experimental: as §2, §3

## NCC[C@H](O)C(=O)N[C@@H]1C[C@H](N)[C@@H](O[C@H]2O[C@H](CN)[C@@H](O)[C@H](O)[C@H]2O)[C@H](O)[C@H]1O[C@H]1O[C@H](CO)[C@@H](O)[C@H](N)[C@H]1O [Amikacin]
[1]
  MIC50: > 64 mg/L
  MIC90: > 64 mg/L
[1]; all grouped isolates (606)
  MIC90: > 64 mg/L
[2]
  MIC90: >64 mg/L
[2]; read-out: MIC50
  MIC50: > 64 mg/L
[2]; read-out: MIC90
  MIC90: > 64 mg/L
[3]; read-out: MIC50
  MIC50: 8 mg/L
[3]; read-out: MIC90
  MIC90: > 64 mg/L
[4]; Klebsiella pneumoniae, read-out: MIC50
  MIC50: > 64 mg/L
[4]; Klebsiella pneumoniae, read-out: MIC90
  MIC90: > 64 mg/L
[4]
  MIC90: >64 mg/L
[5]
  MIC50: > 64 mg/L
  MIC90: > 64 mg/L
[5]; highly resistant strains
  MIC90: >64 mg/L
[6]
  MIC50: > 64 mg/L
[6]; read-out: MIC90
  MIC90: > 64 mg/L
[7]; Acinetobacter baumannii
  MIC90: > 64 mg/L
[7]; Acinetobacter baumannii, highly resistant strains
  MIC50: > 64 mg/L
[7]; highly resistant strains
  MIC90: >64 mg/L
[8]; read-out: MIC50
  MIC50: > 64 mg/L
[8]; read-out: MIC90
  MIC90: > 64 mg/L

## O=C(O)CN(CCN(CC(=O)O)CC(=O)O)CC(=O)O [EDTA, N,N′-(Ethane-1,2-diyl)bis[N-(carboxymethyl)glycine]]
[9]; CA-MHB
  MIC50: 10 mM (≈ 2920 µg/mL)
  MIC90: > 80 mM and >80 mM
[9]; CA-MHB, read-out: MIC MAX
  MIC: > 80 mM
[9]; CA-MHB, read-out: MIC MIN
  MIC: ≤ 1.25 mM
[9]; MHB
  MIC50: 2.5 mM (≈ 731 µg/mL)
  MIC90: 80 mM (≈ 23400 µg/mL)
  MIC MAX: >80 mM
  MIC MIN: ≤1.25 mM
[10]; CA-MHB
  MIC50: 40 mM (≈ 11700 µg/mL)
  MIC90: > 80 mM and >80 mM
[10]; CA-MHB, read-out: MIC MAX
  MIC: > 80 mM
[10]; CA-MHB, read-out: MIC MIN
  MIC: 2.5 mM (≈ 731 µg/mL)
[10]; MHB
  MIC50: 10 mM (≈ 2920 µg/mL)
  MIC90: 80 mM (≈ 23400 µg/mL)
[10]; MHB, read-out: MIC MAX
  MIC: > 80 mM
[10]; MHB, read-out: MIC MIN
  MIC: ≤ 1.25 mM
[11]; CA-MHB
  MIC50: 10 mM (≈ 2920 µg/mL)
  MIC90: 80 mM (≈ 23400 µg/mL)
[11]; CA-MHB, read-out: MIC MAX
  MIC: > 80 mM
[11]; CA-MHB, read-out: MIC MIN
  MIC: 2.5 mM (≈ 731 µg/mL)
[11]; MHB
  MIC50: 2.5 mM (≈ 731 µg/mL)
  MIC90: 20 mM (≈ 5840 µg/mL)
[11]; MHB, read-out: MIC MAX
  MIC: 80 mM (≈ 23400 µg/mL)
[11]; MHB, read-out: MIC MIN
  MIC: ≤ 1.25 mM
[11]; MHB vs CA-MHB
  MIC50 and MIC90 in MHB, fold lower to CA-MHB: 4 fold
[12]; CA-MHB, n = 20
  MIC90: >80 mM
[12]; Klebsiella pneumoniae
  MIC50: 80 mM (≈ 23400 µg/mL)
[12]; Klebsiella pneumoniae, CA-MHB, n = 20
  MIC90: > 80 mM
[12]; Klebsiella pneumoniae, CA-MHB, n = 20, read-out: MIC MAX
  MIC: > 80 mM
[12]; Klebsiella pneumoniae, CA-MHB, n = 20, read-out: MIC MIN
  MIC: 20 mM (≈ 5840 µg/mL)
[12]; Klebsiella pneumoniae, MHB, n = 20
  MIC90: 80 mM (≈ 23400 µg/mL)
[12]; Klebsiella pneumoniae, MHB, n = 20, read-out: MIC MAX
  MIC: > 80 mM
[12]; Klebsiella pneumoniae, MHB, n = 20, read-out: MIC MIN
  MIC: 5 mM (≈ 1460 µg/mL)
[12]; MHB vs CA-MHB
  MIC in MHB compared to CA-MHB: almost similar to CA-MHB
[12]; MHB, n = 20
  MIC50: 80 mM (≈ 23400 µg/mL)
[13]; read-out: MIC MAX
  MIC: 20 mM (≈ 5840 µg/mL)
[13]; read-out: MIC MIN
  MIC: ≤ 1.25 mM
[13]; MHB
  MIC MAX: 20 mM (≈ 5840 µg/mL)
  MIC MIN: ≤1.25 mM
[14]; Acinetobacter baumannii, read-out: MICs
  MIC: ≤ 1.25 mM
[14]; Acinetobacter baumannii, CA-MHB, n = 19, read-out: MIC50
  MIC50: ≤ 1.25 mM
[14]; Acinetobacter baumannii, CA-MHB, n = 19, read-out: MIC90
  MIC90: ≤ 1.25 mM
[14]; Acinetobacter baumannii, CA-MHB, n = 19, read-out: MIC MAX
  MIC: ≤ 1.25 mM
[14]; Acinetobacter baumannii, CA-MHB, n = 19, read-out: MIC MIN
  MIC: ≤ 1.25 mM
[14]; MHB, n = 19
  MIC50: ≤1.25 mM
  MIC90: ≤1.25 mM
  MIC MAX: ≤1.25 mM
  MIC MIN: ≤1.25 mM
[15]; MHB, n = 21
  MIC50: 10 mM (≈ 2920 µg/mL)
  MIC90: 20 mM (≈ 5840 µg/mL)
  MIC MAX: 20 mM (≈ 5840 µg/mL)
  MIC MIN: ≤1.25 mM
[15]; Pseudomonas aeruginosa
  MIC50: 10 mM (≈ 2920 µg/mL)
  MIC90: 20 mM (≈ 5840 µg/mL)
[15]; Pseudomonas aeruginosa, n = 21, read-out: MIC MAX
  MIC: 20 mM (≈ 5840 µg/mL)
[15]; Pseudomonas aeruginosa, n = 21, read-out: MIC MIN
  MIC: ≤ 1.25 mM
